From US10633383B2, “Compounds for the treatment, alleviation or prevention of disorders associated with Tau aggregates” (AC Immune SA, priority 2018, dated 2020)

biological target: T1, Tau K18 fragment (amino acids 244 to 372 of human Tau441) aggregates (Homo sapiens, UniProt P10636); test: Tau K18 disaggregation assay by ThT; type: biochemical; conditions: 2 μM K18 aggregates, 30 minutes at RT, ThT fluorescence
T1 construct: encompassing amino acids 244 to 372 of the longest isoform (2N4R) of human Tau441; host or cells: bacteria
Protocol: Tau K18 Disaggregation Assay by ThT
Compounds were dissolved in anhydrous dimethyl sulfoxide (DMSO, Sigma-Aldrich) to reach a concentration of 10 mM. K18 aggregates and serial dilutions of compounds were mixed together in PBS (volume 50 μL) to a final concentration of 2 μM of K18 aggregates and from 160 to 0.04 μM of compounds. The mixture was incubated for 30 minutes at room temperature (RT), then 40 μL of this mixture were transferred into a black 384-well plate assay (Perkin-Elmer) and mixed with 10 μL of 100 μM ThT in 250 mM glycine (both from Sigma-Aldrich) in PBS. Fluorescence (relative fluorescence units; RFU) was measured in monoplicate or duplicate on a Tecan reader (excitation: 440 nm; emission: 485 nm). Percentage of K18 disaggregation was then calculated and half maximal effective concentration (EC50) was determined using GraphPad Prism version 5 (GraphPad Software) assuming a one-binding site fitting model.

T1 sequence (P10636 561-689): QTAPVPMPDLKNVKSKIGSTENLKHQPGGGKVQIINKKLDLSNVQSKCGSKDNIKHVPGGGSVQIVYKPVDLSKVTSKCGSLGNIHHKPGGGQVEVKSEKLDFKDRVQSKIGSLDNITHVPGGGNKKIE

Row | EC50 [µM] | Structure (SMILES)
1 | < 10 | Fc1ccc2c3c([nH]c2c1)CCN(c1ccc(N2CCOCC2)nc1)C3 [Example 79]
2 | 10 to 25 | COc1ccc(N2CCc3[nH]c4cc(F)ccc4c3C2)nc1 [Example 141]
3 | < 10 | Fc1ccc2c3c([nH]c2c1)CCN(c1cc2ccc(N4CCOCC4)nc2cn1)C3 [Example 110]
4 | < 10 | Cn1c2c(c3ccc(F)cc31)CN(c1ccc(N3CCOCC3)cn1)CC2 [Example 80]
5 | < 10 | N#Cc1ccc(N2CCc3[nH]c4cc(F)ccc4c3C2)cn1 [Example 123]
6 | 10 to 25 | Fc1cccc2[nH]c3c(c12)CN(c1ccc(N2CCOCC2)cn1)CC3 [Example 82]
7 | < 10 | COc1cc(N2CCc3c(c4cc(F)ccc4n3C)C2)ccc1O [Example 151]
8 | < 10 | Cn1c2c(c3cc(F)ccc31)CN(c1ccc3cc(O)ccc3n1)CC2 [Example 150]
9 | < 10 | Fc1ccc2c3c([nH]c2c1)CCN(c1nc2ccc(N4CCOCC4)cc2o1)C3 [Example 109]
10 | < 10 | Fc1ccc2[nH]c3c(c2c1)CN(c1ccc2nc(N4CCOCC4)ccc2n1)CC3 [Example 105a]
11 | < 10 | Fc1ccc2c3c([nH]c2c1)CCN(c1ccc2cc(N4CCOCC4)ncc2c1)C3 [Example 122]
12 | < 10 | COc1cccc2c3c([nH]c12)CCN(c1ccc2oc(N4CCOCC4)nc2c1)C3 [Example 127]
13 | < 10 | Cc1cccc2c3c([nH]c12)CCN(c1ccc2oc(N4CCOCC4)nc2c1)C3 [Example 137]
14 | < 10 | CN(C)c1nc2cc(N3CCc4c(c5cc(F)cnc5n4C)C3)ccc2o1 [Example 38]
15 | < 10 | Fc1ccc2[nH]c3c(c2c1)CN(c1cccc2oc(N4CCOCC4)nc12)CC3 [Example 124]
16 | < 10 | Fc1ccc2c3c([nH]c2c1)CCN(c1ccc2oc(N4CCOC5(CCC5)C4)nc2c1)C3 [Example 125]
17 | 10 to 25 | Fc1ccc2[nH]c3c(c2c1)CN(c1ccc2ccc(N4CCOCC4)nc2c1)CC3 [Example 114]
18 | < 10 | Fc1ccc2[nH]c3c(c2c1)CN(c1cnc2nc(N4CCOCC4)ccc2c1)CC3 [Example 112]
19 | < 10 | Fc1ccc2c3c([nH]c2c1)CCN(c1nc2ccc(N4CCOCC4)cc2s1)C3 [Example 108]
20 | < 10 | N#Cc1ccc(N2CCc3[nH]c4cc(F)ccc4c3C2)nc1 [Example 121]
21 | 10 to 25 | Fc1ccc2c3c([nH]c2c1)CCN(c1ccc2ccc(N4CCOCC4)nc2c1)C3 [Example 91]
22 | < 10 | Fc1ccc2[nH]c3c(c2c1)CN(c1ccc(N2CCOCC2)cc1)CC3 [Example 115]
23 | 10 to 25 | c1ccc2c3c([nH]c2c1)CCN(c1ccc(N2CCOCC2)nc1)C3 [Example 86]
24 | < 10 | C[C@H]1CN(c2nc3cc(N4CCc5[nH]c6cc(F)ccc6c5C4)ccc3o2)CCO1 [Example 128]
25 | 10 to 25 | COc1ccc2c(c1)c1c(n2C)CCN(c2ccc3oc(N(C)C)nc3c2)C1 [Example 96a]
26 | 10 to 25 | COCCNc1nc2cc(N3CCc4[nH]c5cc(F)ccc5c4C3)ccc2o1 [Example 118]
27 | < 10 | Fc1cccc2[nH]c3c(c12)CN(c1ccc2oc(N4CCOCC4)nc2c1)CC3 [Example 53]

Row | EC50 [µM] | Structure (SMILES)
28 | < 10 | Fc1ccc2c3c([nH]c2c1)CCN(c1ncc2nc(N4CCOCC4)sc2n1)C3 [Example 105f]
29 | 25 to 50 | Fc1ccc2[nH]c3c(c2c1)CN(c1ccnc(N2CCOCC2)n1)CC3 [Example 99]
30 | < 10 | Fc1ccc2c3c([nH]c2c1)CCN(c1ccc(N2CCOCC2)cn1)C3 [Example 78]
31 | < 10 | COc1cccc(N2CCc3[nH]c4cc(F)ccc4c3C2)n1 [Example 138]
32 | < 10 | C[C@H]1COCCN1c1nc2cc(N3CCc4[nH]c5cc(F)ccc5c4C3)ccc2o1 [Example 129]
33 | < 10 | Fc1ccc2[nH]c3c(c2c1)CN(c1cnc2nc(N4CCOCC4)sc2c1)CC3 [Example 71]
34 | < 10 | CC(C)(C)Nc1nc2cc(N3CCc4[nH]c5cc(F)ccc5c4C3)ccc2o1 [Example 143]
35 | < 10 | COc1ccc2nc(N3CCc4c(c5cc(F)ccc5n4C)C3)ccc2c1 [Example 93]
36 | < 10 | CNc1nc2ccc(N3CCc4c(c5cc(OC)ccc5n4C)C3)cc2s1 [Example 41]
37 | 25 to 50 | Cn1c2c(c3cc(F)ccc31)CN(c1ccc(F)cn1)CC2 [Example 96e]
38 | < 10 | Cn1c2c(c3ccccc31)CN(c1ccc(N3CCOCC3)nc1)CC2 [Example 119]
39 | < 10 | COc1ccc2c3c([nH]c2c1)CCN(c1ccc2oc(N4CCOCC4)nc2c1)C3 [Example 133]
40 | 10 to 25 | Fc1cccc2[nH]c3c(c12)CN(c1ccc(N2CCOCC2)nc1)CC3 [Example 81]
41 | < 10 | COc1cncc(N2CCc3c(c4cc(F)ccc4n3C)C2)c1 [Example 94]
42 | < 10 | CN(C)c1nc2cc(N3CCc4[nH]c5ccc(F)cc5c4C3)ccc2o1 [Example 10]
43 | < 10 | Cn1c2c(c3cc(F)ccc31)CN(c1ccc(N3CCOCC3)cn1)CC2 [Example 77]
44 | < 10 | Fc1ccc2c3c([nH]c2c1)CCN(c1cnc2nc(N4CCOCC4)sc2c1)C3 [Example 73]
45 | < 10 | Cn1c2c(c3cc(F)ccc31)CN(c1ccc(OCCO)cc1)CC2 [Example 149]
46 | < 10 | CCn1c2c(c3ccc(F)cc31)CN(c1ccc3oc(N4CCOCC4)nc3c1)CC2 [Example 146, 5-(5-ethyl-7-fluoro-3,4-dihydro-1H-pyrido[4,3-b]indol-2-yl)-2-morpholino-1,3-benzoxazole]
47 | < 10 | COc1ccnc(N2CCc3[nH]c4cc(F)ccc4c3C2)c1 [Example 140]
48 | < 10 | Fc1ccc2c3c([nH]c2c1)CCN(c1ccc2nc(N4CCOCC4)ccc2c1)C3 [Example 92]
49 | < 10 | Fc1ccc2c3c([nH]c2c1)CCN(c1nc2cc(N4CCOCC4)ccc2o1)C3 [Example 106]
50 | < 10 | Fc1ccc2[nH]c3c(c2c1)CN(c1ccc(N2CCOCC2)nn1)CC3 [Example 97]
51 | 10 to 25 | CC(C)Oc1cc(N2CCc3[nH]c4cc(F)ccc4c3C2)ccn1 [Example 139]
52 | < 10 | Fc1ccc2[nH]c3c(c2c1)CN(c1ccc2nc(N4CCOCC4)ccc2c1)CC3 [Example 113]
53 | < 10 | Fc1ccc2c3c([nH]c2c1)CCN(c1cc2sc(N4CCOCC4)nc2cn1)C3 [Example 89, 4-(6-(7-fluoro-1,3,4,5-tetrahydro-2H-pyrido[4,3-b]indol-2-yl)thiazolo[4,5-c]pyridin-2-yl)morpholine]
54 | < 10 | Cn1c2c(c3ccccc31)CN(c1ccc3oc(N4CCOCC4)nc3c1)CC2 [Example 144]

Row | EC50 [µM] | Structure (SMILES)
55 | < 10 | C[C@@H]1CN(c2nc3cc(N4CCc5[nH]c6cc(F)ccc6c5C4)ccc3o2)CCO1 [Example 130]
56 | < 10 | CN(C)c1nc2ccc(N3CCc4[nH]c5ccc(F)cc5c4C3)cc2s1 [Example 7]
57 | < 10 | Cn1c2c(c3ccc(F)cc31)CN(c1ccc(N3CCOCC3)nc1)CC2 [Example 87]
58 | < 10 | COc1cc(N2CCc3[nH]c4cc(F)ccc4c3C2)ccc1F [Example 152]
59 | 25 to 50 | Fc1ccc2c3c([nH]c2c1)CCN(c1ccc(N2CC4CCC(C2)O4)nn1)C3 [Example 102]
60 | < 10 | Fc1ccc2c3c([nH]c2c1)CCN(c1ccc(N2CCOCC2)nn1)C3 [Example 101]
61 | 10 to 25 | CCOc1ccc2[nH]c3c(c2c1)CN(c1ccc2oc(N4CCOCC4)nc2c1)CC3 [Example 136]
62 | < 10 | Cn1c2c(c3cc(F)ccc31)CN(c1ccc3nc(N4CCOCC4)sc3c1)CC2 [Example 1]
63 | < 10 | Fc1ccc2c3c([nH]c2c1)CCN(c1ccc2nc(N4CCOCC4)sc2n1)C3 [Example 88]
64 | < 10 | Fc1ccc2[nH]c3c(c2c1)CN(c1ccc(N2CCOCC2)cn1)CC3 [Example 76]
65 | < 10 | c1ccc2c3c([nH]c2c1)CCN(c1ccc(N2CCOCC2)cn1)C3 [Example 85]
66 | < 10 | Fc1ccc2[nH]c3c(c2c1)CN(c1ncc2nc(N4CCOCC4)sc2n1)CC3 [Example 104]
67 | < 10 | Cc1ccc(N2CCc3c(c4cc(F)ccc4n3C)C2)cc1O [Example 147]
68 | < 10 | COc1ccc(N2CCc3c(c4cc(F)ccc4n3C)C2)cc1 [Example 148]
69 | 25 to 50 | Fc1ccc2[nH]c3c(c2c1)CN(c1cnc(N2CCOCC2)cn1)CC3 [Example 100]
70 | < 10 | Cn1c2c(c3cc(F)ccc31)CN(c1ccc(N3CCOCC3)cc1)CC2 [Example 96]
71 | < 10 | Fc1cccc2c3c([nH]c12)CCN(c1ccc2oc(N4CCOCC4)nc2c1)C3 [Example 111]
72 | < 10 | C[C@@H]1COCCN1c1nc2cc(N3CCc4[nH]c5cc(F)ccc5c4C3)ccc2o1 [Example 126]
73 | < 10 | COCCN(C)c1nc2cc(N3CCc4[nH]c5cc(F)ccc5c4C3)ccc2o1 [Example 116]
74 | < 10 | CN1CCN(c2nc3cc(N4CCc5[nH]c6cc(F)ccc6c5C4)ccc3o2)CC1 [Example 145]
75 | < 10 | Cn1c2c(c3c(F)cccc31)CN(c1ccc(N3CCOCC3)nc1)CC2 [Example 83]
76 | < 10 | Fc1ccc2c3c([nH]c2c1)CCN(c1ccc2nc(N4CCOCC4)ccc2n1)C3 [Example 105b]
77 | < 10 | CNc1nc2ccc(N3CCc4[nH]c5ccc(F)cc5c4C3)cc2o1 [Example 98]
78 | < 10 | Fc1ccc2[nH]c3c(c2c1)CN(c1ccc2nc(N4CCOCC4)sc2n1)CC3 [Example 72]
79 | < 10 | COc1cc(N2CCc3c(c4cc(F)ccc4n3C)C2)ccn1 [Example 95]

Row | Structure (SMILES) | EC50 [µM]
80 | Fc1ccc2[nH]c3c(c2c1)CN(c1cnc(N2C4CCC2COC4)cn1)CC3 [Example 105] | < 10
